# Read-outs that look alike come from different tables or passages of the source.
# Columns and labels:
# BaCC [1] = assay: Minimum inhibitory concentration of terpenes against BaCC (broth microdilution); format: cell-based; details: Bacillus thuringiensis; 24 h at 30° C. in LB; no absorbance increase; read-out: MIC μg/mL (100)
# Experimental: Three terpenes were tested against BaCC including: carvacrol, geraniol and farnesol, by using the broth microdilution method as described in Agaisse and Lereclus, J. Bacteriol. 176, 4734-4741, 1994 and Agaisse and Lereclus, Mol. Microbiol. 13, 97-107, 1994 with some modifications. Briefly, BaCC from a single colony was grown in 5 mL of LB medium supplemented with 10 μg/mL erythromycin+200 μg/mL kanamycin overnight (O.D. (600) of 4.8, 2.3×10^7 CFU/mL). Terpene solutions were prepared at 1 mg/mL in LB. One hundred μL of two-fold serial dilutions of each terpene in LB were prepared in 96-well microtiter plates over the range of 1000 to 3.9 μg/mL in triplicate. LB without terpenes was used as a negative control. BaCC culture was diluted 100 times, and 100 μL of BaCC culture was added to the wells. Absorbance at 600 nm was recorded before and after the incubation to monitor bacterial growth. The MICs were determined after incubation for 24 h at 30° C. without shaking.
# BaCC [2] = assay: Time to kill: CFU/mL of BaCC after terpene treatment; format: cell-based, Bacillus thuringiensis
# Experimental: In order to determine which terpene kills BaCC in the shortest amount of time, we incubated 5 mL of BaCC culture with three terpenes at 1 mg/mL at 4° C. for 1, 2, 3 and 5 hours. No terpene control and no bacteria controls were carried out simultaneously. After incubation with terpenes, samples were centrifuged and the pellets were washed with 5 mL of 1M NaCl once and 5 mL of sterile distilled water twice in order to remove the terpenes. The pellets were re-suspended in the original volume and plated on LB agar with kanamycin and erythromycin. Plates were incubated overnight at 30° C.; the next day, the number of colonies on the plates were enumerated and colony forming units (CFU)/mL calculated.
# To assess terpene killing at shorter time points, BaCC culture was grown in 3× LB for 48 h as described above and 60 ml of cultures were aliquoted in sterile tubes. Carvacrol and geraniol were added to the final concentration of 1 mg/mL, and the tubes were placed on a rotator at 4° C. for 15 minutes. The negative control was prepared using sterile water instead of terpenes. At the end of the incubation period, the tubes were centrifuged at 2000× g for 10 minutes and pellets washed with 60 ml of 1 M NaCl once and washed with 60 mL of sterile distilled water twice. Pellets were re-suspended in 1.2 mL of sterile distilled water to concentrate the culture 50 times. Concentrated terpene treated and control samples were plated on LB agar plates containing kanamycin and erythromycin and incubated overnight at 30° C. The number of colonies were counted the next day and CFU/mL calculated for each time point.
# BaCC [3] = assay: Carvacrol wash protocols: alive bacteria (CFU) after treatment; format: cell-based, Bacillus thuringiensis
# Experimental: To reduce carvacrol residue in the final product, we tested different strategies. In order to reduce the carvacrol residue in the final IBaCC product, first the total amount of carvacrol was reduced by concentrating the cultures before carvacrol treatment. The cultures were centrifuged, and the pellets were re-suspended in sterile distilled water in half or one fourth of the original culture volume. Then, carvacrol was added at 1 mg/mL concentration. Second, carvacrol was removed from the culture by increasing the solubility of carvacrol in the water phase. […] As such, 5% and 15% of ethanol water was used in the washing steps following the IBaCC incubation with carvacrol. Another strategy employed was to increase the volume of distilled water during the washing steps to remove more carvacrol per wash step (for instance, only 25 mg carvacrol can be solubilized with 20 mL of water while 50 mg carvacrol can be solubilized with 40 mL of water.) Lastly, since the temperature affects carvacrol solubility, the incubation and washing steps were carried out at room temperature instead of 4° C. The positive control sample was treated with 1 mg/mL carvacrol without concentrating the culture prior to carvacrol treatment, incubated at 4° C., washed with 1M NaCl once and distilled water twice using 1:1 culture to wash volume ratio. No terpene control sample received water instead of carvacrol, but the incubation and washing steps were carried out in the same manner as the positive control. BaCC culture was grown in 3× LB for 48 hours, and 40 mL of BaCC culture was used for each condition. After washes, the culture was concentrated 20 times. Samples were plated for CFU/mL analysis as described earlier, and carvacrol residue was assessed by HPLC as follows.
# E. coli = assay: CFU of E. coli after carvacrol treatment; format: cell-based, Escherichia coli; details: 1 mg/mL carvacrol for 15 minutes
# Experimental: Bioactivity of carvacrol-treated Crystal-E. coli on C. elegans. Escherichia coli cells expressing nematicidal Crystal protein or empty vector were treated for 15 minutes with 1 mg/mL carvacrol. The cells were washed in sterile water 3 times. CFUs were determined for untreated and carvacrol-treated cells by serial dilution plating on LB plates. In addition, C. elegans nematode L4 hermaphrodites were fed overnight 1.8 ×10^7 cells/mL of E. coli untreated or carvacrol-treated, Crystal expressing and empty vector (4 conditions) at 25° C. for 16 hr.
# [4] = cited from earlier work
# [5] = Concentrated 2X = 20 ml before adding carvacrol (1 mg/mL)
# [6] = Concentrated 4X = 10 ml before adding carvacrol (1 mg/mL)
# [7] = Control: 4C, no concentration, 1:1 culture to wash volume (1 mg/mL carvacrol)
# [8] = Incubated and washed at room temperature
# [9] = Wash volume increased 2X (e.g., 40 ml wash for 20 ml culture)
# [10] = Washes were done with 5% ethanol in water
# [11] = Washes were done with 15% ethanol in water
structure (smiles),measurement,setting,value
"Cc1ccc(C(C)C)cc1O [Carvacrol, carvacrol]",MIC,BaCC [1],125 µg/mL
same,CFU/ml (1 mg/mL terpene treatment for time indicated),"BaCC [2]; 15 min at 4° C., culture concentrated 50 times (50X conc.) before plating",0 CFU/ml
same,CFU/ml (1 mg/mL terpene treatment for time indicated),BaCC [2]; 1 h at 4° C.,0 CFU/ml
same,CFU/ml (1 mg/mL terpene treatment for time indicated),BaCC [2]; 3 h at 4° C.,0 CFU/ml
same,CFU/ml (1 mg/mL terpene treatment for time indicated),BaCC [2]; 5 h at 4° C.,0 CFU/ml
same,killing of BaCC (spo0A- cells expressing Cry5B),BaCC [2]; carvacrol treatment,complete killing of the Bacilli
same,comparison of antimicrobial efficiency among the 3 terpenes,"BaCC [2]; carvacrol, geraniol, farnesol against BaCC","most efficient, killing the quickest and at the lowest concentration"
same,CFU/ml (1 mg/mL terpene treatment for time indicated),BaCC [2]; time 0,2.31 × 10^7 CFU/ml
same,Number of alive bacteria in 1 ml 20X concentrate,BaCC [3]; [5],0
same,Number of alive bacteria in 1 ml culture,BaCC [3]; [5],0
same,Number of alive bacteria in 1 ml 20X concentrate,BaCC [3]; [6],0
same,Number of alive bacteria in 1 ml culture,BaCC [3]; [6],0
same,Number of alive bacteria in 1 ml 20X concentrate,BaCC [3]; [7],0
same,Number of alive bacteria in 1 ml culture,BaCC [3]; [7],0
same,Number of alive bacteria in 1 ml 20X concentrate,BaCC [3]; [8],0
same,Number of alive bacteria in 1 ml culture,BaCC [3]; [8],0
same,Number of alive bacteria in 1 ml 20X concentrate,BaCC [3]; [9],140
same,Number of alive bacteria in 1 ml culture,BaCC [3]; [9],7
same,Number of alive bacteria in 1 ml 20X concentrate,BaCC [3]; [10],0
same,Number of alive bacteria in 1 ml culture,BaCC [3]; [10],0
same,Number of alive bacteria in 1 ml 20X concentrate,BaCC [3]; [11],160
same,Number of alive bacteria in 1 ml culture,BaCC [3]; [11],8
same,killing of E. coli (CFUs),E. coli,effectively killed the E. coli
same,log P octanol/water,[4],3.64
same,amount that can be solubilized,[4]; with 20 mL of water,25 mg
same,amount that can be solubilized,[4]; with 40 mL of water,50 mg

# From patent US12576129B2, “Anthelmintic compositions and methods” (priority 2016, dated 2026)
